Results on 15 molecules are retold here after BindingDB's records for doi:10.1016/j.chembiol.2004.08.006 (University of Washington, 2004).

SMILES strings stand for the structures.

What all share (test): Inhibition Assay
Experiment [1] concerns the target T1, Coagulation factor VIII (Homo sapiens, UniProt P00451). The following applies: 37 °C. The text has this: Inhibition of factor VIII C2 domain.
Experiment [2] has as its target T1, Coagulation factor VIII. The following applies: pH 7.9. The text has this:
Inhibition of factor X activation assay. A commercially available chromogenic assay that measures the rate of factor X activation to measure inhibiton of the cofactor function of factor VIII.

The target of experiment [3] is T1, Coagulation factor VIII. The note with it: pH 8. As for the experimental part: Inhibition of factor VIII ELISA. The interaction between factor VIII and PS was measured by using an enzyme-linked immunoadsorbent assay (ELISA).

T1 sequence (P00451 20-759 limits assumed): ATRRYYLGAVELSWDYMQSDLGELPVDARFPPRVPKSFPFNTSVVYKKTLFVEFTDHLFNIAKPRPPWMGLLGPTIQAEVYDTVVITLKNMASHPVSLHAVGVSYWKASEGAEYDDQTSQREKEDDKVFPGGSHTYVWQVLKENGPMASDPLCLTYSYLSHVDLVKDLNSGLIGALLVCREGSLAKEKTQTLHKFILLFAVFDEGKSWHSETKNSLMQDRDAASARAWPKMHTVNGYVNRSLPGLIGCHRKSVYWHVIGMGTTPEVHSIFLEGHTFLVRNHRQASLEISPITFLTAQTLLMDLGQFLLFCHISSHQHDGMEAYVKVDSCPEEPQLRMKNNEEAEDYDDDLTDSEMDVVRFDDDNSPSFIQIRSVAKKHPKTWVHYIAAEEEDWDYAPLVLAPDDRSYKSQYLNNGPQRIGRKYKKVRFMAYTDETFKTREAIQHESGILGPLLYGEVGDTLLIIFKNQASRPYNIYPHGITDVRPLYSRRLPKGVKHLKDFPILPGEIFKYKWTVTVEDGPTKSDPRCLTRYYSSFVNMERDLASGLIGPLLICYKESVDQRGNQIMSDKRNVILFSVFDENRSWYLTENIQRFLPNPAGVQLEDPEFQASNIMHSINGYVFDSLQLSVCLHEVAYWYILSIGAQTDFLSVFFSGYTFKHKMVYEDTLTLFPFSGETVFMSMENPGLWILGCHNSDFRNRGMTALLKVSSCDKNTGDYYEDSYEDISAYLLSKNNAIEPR
T1 sequence (P00451 1668-2351 limits assumed): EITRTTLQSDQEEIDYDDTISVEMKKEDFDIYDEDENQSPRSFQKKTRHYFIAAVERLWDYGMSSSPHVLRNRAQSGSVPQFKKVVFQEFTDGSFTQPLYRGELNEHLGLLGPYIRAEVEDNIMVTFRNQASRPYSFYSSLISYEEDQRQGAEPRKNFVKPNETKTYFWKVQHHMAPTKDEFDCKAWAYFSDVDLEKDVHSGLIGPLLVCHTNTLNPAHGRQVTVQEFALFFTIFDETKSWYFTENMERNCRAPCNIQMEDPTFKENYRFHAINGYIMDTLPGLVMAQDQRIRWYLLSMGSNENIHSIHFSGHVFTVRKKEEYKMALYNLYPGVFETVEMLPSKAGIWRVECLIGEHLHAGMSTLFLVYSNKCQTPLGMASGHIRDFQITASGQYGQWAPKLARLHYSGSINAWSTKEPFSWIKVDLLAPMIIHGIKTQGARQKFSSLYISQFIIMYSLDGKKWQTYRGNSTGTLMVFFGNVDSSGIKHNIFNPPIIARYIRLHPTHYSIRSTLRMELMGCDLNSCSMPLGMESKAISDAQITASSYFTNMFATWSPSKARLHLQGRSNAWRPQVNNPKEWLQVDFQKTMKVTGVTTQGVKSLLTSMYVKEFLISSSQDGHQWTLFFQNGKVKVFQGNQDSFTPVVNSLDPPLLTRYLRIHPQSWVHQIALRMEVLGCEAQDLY

In experiment [1], `CCOc1ccc(-c2cc(C)n3nc(C(N)=O)cc3n2)cc1` gave an IC50 of 26.8 µM.
For the molecule `CC(C=Cc1ccco1)=NCCCCNC(=O)C=Cc1ccco1` [5247489], it took 56.1 µM to reach half-maximal inhibition in experiment [1] (IC50).
`CCOC(=O)c1c(NC(=S)NC(=O)c2ccccc2)sc2c1CCC(C)C2` (stereo unspecified) [5523453] gave an IC50 in experiment [1] of 27.7 µM.
Take `O=C1/C(=C/c2ccc(Br)o2)SC(=S)N1c1cccc(C(F)(F)F)c1` [5737176]: the IC50 in experiment [1] is 6.66 µM; in experiment [2] it was 8.5 µM; in experiment [3] it was 9.25 µM.
In the same order, the values of `O=C1/C(=C/c2ccc(I)o2)SC(=S)N1c1cccc(C(F)(F)F)c1` [5738875] are 5.65 µM, 5 µM and 6.83 µM.
For `O=C1/C(=C/c2ccc(Br)o2)SC(=S)N1c1ccc([N+](=O)[O-])cc1` [5739991], the results for the half-maximal inhibitory concentration (IC50) in experiment [1], in experiment [2] and in experiment [3] were 4.63 µM, 11.7 µM and 10.4 µM, respectively.
The molecule `N=C(NN=Cc1ccc(F)cc1)NN=Cc1ccc(F)cc1` [5924029] returned an IC50 in experiment [1] of 24.5 µM.
On to `COc1cc(/C=C2/SC(=S)N(CC(=O)Nc3ccccn3)C2=O)cc(OC)c1OC` [6126765], for which the IC50 in experiment [1] was determined as 11.9 µM.
On the same count and under the same terms, the result for `CCOc1ccc(Cl)cc1/C=C1/SC(=S)N(CC)C1=O` [6168356] reads 49.6 µM.
Turning to `O=C1NC(=S)NC(=O)C1=Cc1ccc(-c2cc(Cl)c([N+](=O)[O-])cc2Cl)o1` [6190013], the IC50 turned out to be 8.48 µM in experiment [1], 7.5 µM in experiment [2] and 2.11 µM in experiment [3].
On to `COc1cc(C=Nn2c(O)csc2=S)ccc1OCCOc1ccc(C(C)(C)C)cc1` [6209549], for which, in experiment [1], the IC50 turned out to be 12.4 µM.
Take `O=C1/C(=C\c2ccc(Sc3ccc(Cl)cc3)o2)SC(=S)N1c1ccc([N+](=O)[O-])cc1` [6789536]: the IC50 in experiment [1] was found to be 5.85 µM; in experiment [2] it was 5.6 µM; in experiment [3], 4.81 µM.
As for `O=C1/C(=C/c2ccc(-c3ccc(Cl)cc3Cl)o2)SC(=S)N1c1cccc(C(F)(F)F)c1` [8047577], the concentration for half-maximal inhibition (IC50) in experiment [1] was 2.44 µM; in experiment [2], 2.1 µM; in experiment [3], 2.56 µM.
In the same order, the values of `O=C1NC(=S)NC(=O)C1=Cc1ccc(-c2ccc(Cl)c(C(=O)O)c2)o1` [8048422] are 4.17 µM, 6.7 µM and 3.89 µM.
Regarding `O=C1NC(=S)NC(=O)C1=Cc1ccc(-c2cccc(C(=O)O)c2Cl)o1` [8056354], the figures for the IC50 in experiment [1], in experiment [2] and in experiment [3] were 6.29 µM, 6.8 µM and 6.51 µM, respectively.

The IC50 is the concentration at which inhibition is half-maximal. Low readings indicate inhibition by little substance, high ones a need for much substance.
